Laboratory results as given in ChEMBL document CHEMBL4715853 (J Med Chem, 2020).

Tested on: Human coronavirus 229E
Test: Antiviral activity against HCoV-229E harboring GFP infected in human Huh-7 cells treated 1 hr prior to viral infection by fluorometric analysis
Assay type: functional, organism-based

CCN(CC)CCCC(C)Nc1ccnc2cc(Cl)ccc12 (stereo unspecified) [CHLOROQUINE]
EC50: 3.3 µM
